In publication PMC3165084 (Leukemia, 2011):
Values joined by “and” are separate entries in the source; they are usually repeats but may differ in a detail not shown here. Equal entries are not always repeated.

Legend:
[1] = test system: myeloid and lymphoid leukemias; settings: ref [2], cited from earlier work
[2] = Plasma pharmacokinetics of tipifarnib, LCMS/MS, non-compartmental analysis; format: in vivo, human; settings: for AUC(0-t): AUC12h
[3] = AUC12h Day 5 / AUC12h Day 1, 1400 mg bid
[4] = Day 1, 1200 mg, plasma, individual subjects 4-10
[5] = Day 1, 1400 mg, plasma, individual subjects 1-3
[6] = Day 5, 1200 mg bid, plasma, individual subjects 4-10

Cn1cncc1[C@@](N)(c1ccc(Cl)cc1)c1ccc2c(c1)c(-c1cccc(Cl)c1)cc(=O)n2C [tipifarnib, Tipifarnib]
response at lowest dose level ([1]; 100 mg bid, 21-day continuous dosing): a CR at the lowest dose level
overall response rate ([1]; 34 patients, 21-day continuous dosing schedule): 29%
Accumulation Index, median ([2]; AUC12h Day 5 / AUC12h Day 1, 1200 mg bid): 1.2 and 1.23
Accumulation Index ([2]; AUC12h Day 5 / AUC12h Day 1, 1200 mg bid, individual subjects 4-10): 1.23 and 0.91 and 2.40 and 1.55
Accumulation Index, high [2, 3]: 1.37
Accumulation Index, low [2, 3]: 0.97
Accumulation Index, median [2, 3]: 1.17
Accumulation Index ([2]; AUC12h Day 5 / AUC12h Day 1, 1400 mg bid, individual subjects 1-3): 1.37 and 0.97
Cmin, high ([2]; Day 1, 1200 mg, plasma): 402 ng/mL
Cmin, low ([2]; Day 1, 1200 mg, plasma): 82 ng/mL
Cmin, median ([2]; Day 1, 1200 mg, plasma): 166 ng/mL
AUC12h [2, 4]: 3905 ng·h/mL
Cmax [2, 4]: 804 ng/mL and 1180 ng/mL and 479 ng/mL and 2300 ng/mL
Cmin [2, 4]: 132 ng/mL and 339 ng/mL and 166 ng/mL and 82 ng/mL and 402 ng/mL
Tmax [2, 4]: 3.0 h
Cmin, low ([2]; Day 1, 1400 mg, plasma): 145 ng/mL
Cmin, median ([2]; Day 1, 1400 mg, plasma): 237 ng/mL
Cmin [2, 5]: 329 ng/mL and 145 ng/mL
Tmax [2, 5]: 3.2 h
AUC12h [2, 6]: 4815 ng·h/mL and 7001 ng·h/mL and 7787 ng·h/mL and 9221 ng·h/mL
Cmax [2, 6]: 1880 ng/mL and 2490 ng/mL and 1020 ng/mL
Cmin [2, 6]: 97 ng/mL and 204 ng/mL and 234 ng/mL and 283 ng/mL and 166 ng/mL and 113 ng/mL and 101 ng/mL
Tmax [2, 6]: 3.0 h and 3.1 h and 2.8 h
Cmin ([2]; Day 5, 1400 mg bid, plasma, individual subjects 1-3): 781 ng/mL and 170 ng/mL
tipifarnib accumulation between days 1 and 5 ([2]; at 1200 and 1400 mg bid): relatively modest
AUC(0-t) ([2]; human, plasma, oral, 1200 mg, high, Day 1, 1200 mg, plasma): 15700 ng·h/mL
AUC(0-t) ([2]; human, plasma, oral, 1200 mg, high, Day 5, 1200 mg bid, plasma): 14200 ng·h/mL
AUC(0-t) ([2]; human, plasma, oral, 1200 mg, low, Day 1, 1200 mg, plasma): 3240 ng·h/mL
AUC(0-t) ([2]; human, plasma, oral, 1200 mg, low, Day 5, 1200 mg bid, plasma): 4620 ng·h/mL
AUC(0-t) ([2]; human, plasma, oral, 1200 mg, median, Day 1, 1200 mg, plasma): 4740 ng·h/mL
AUC(0-t) ([2]; human, plasma, oral, 1200 mg, median, Day 5, 1200 mg bid, plasma): 7370 ng·h/mL
Cmax ([2]; human, plasma, oral, 1200 mg, Cmax, high, Day 1, 1200 mg, plasma): 3160 ng/mL
Cmax ([2]; human, plasma, oral, 1200 mg, Cmax, high, Day 5, 1200 mg bid, plasma): 2500 ng/mL
Cmax ([2]; human, plasma, oral, 1200 mg, Cmax, low, Day 1, 1200 mg, plasma): 404 ng/mL
Cmax ([2]; human, plasma, oral, 1200 mg, Cmax, low, Day 5, 1200 mg bid, plasma): 762 ng/mL
Cmax ([2]; human, plasma, oral, 1200 mg, Cmax, median, Day 1, 1200 mg, plasma): 906 ng/mL
Cmax ([2]; human, plasma, oral, 1200 mg, Cmax, median, Day 5, 1200 mg bid, plasma): 1210 ng/mL
concentration at 5 day ([2]; human, plasma, oral, 1200 mg, Cmin, high, Day 5, 1200 mg bid, plasma): 283 ng/mL
concentration at 5 day ([2]; human, plasma, oral, 1200 mg, Cmin, low, Day 5, 1200 mg bid, plasma): 97 ng/mL
concentration at 5 day ([2]; human, plasma, oral, 1200 mg, Cmin, median, Day 5, 1200 mg bid, plasma): 166 ng/mL
Tmax ([2]; human, plasma, oral, 1200 mg, Tmax, high, Day 1, 1200 mg, plasma): 3 h
Tmax ([2]; human, plasma, oral, 1200 mg, Tmax, high, Day 5, 1200 mg bid, plasma): 5 h
Tmax ([2]; human, plasma, oral, 1200 mg, Tmax, low, Day 1, 1200 mg, plasma): 2 h
Tmax ([2]; human, plasma, oral, 1200 mg, Tmax, low, Day 5, 1200 mg bid, plasma): 1 h
Tmax ([2]; human, plasma, oral, 1200 mg, Tmax, median, Day 1, 1200 mg, plasma): 2.1 h
Tmax ([2]; human, plasma, oral, 1200 mg, Tmax, median, Day 5, 1200 mg bid, plasma): 3 h
AUC(0-t) ([2]; human, plasma, oral, 1400 mg, high, Day 1, 1400 mg, plasma): 18700 ng·h/mL
AUC(0-t) ([2]; human, plasma, oral, 1400 mg, high, Day 5, 1400 mg bid, plasma): 25600 ng·h/mL
AUC(0-t) ([2]; human, plasma, oral, 1400 mg, low, Day 1, 1400 mg, plasma): 8950 ng·h/mL
AUC(0-t) ([2]; human, plasma, oral, 1400 mg, low, Day 5, 1400 mg bid, plasma): 8710 ng·h/mL
AUC(0-t) ([2]; human, plasma, oral, 1400 mg, median, Day 1, 1400 mg, plasma): 13800 ng·h/mL
AUC(0-t) ([2]; human, plasma, oral, 1400 mg, median, Day 5, 1400 mg bid, plasma): 17100 ng·h/mL
Cmax ([2]; human, plasma, oral, 1400 mg, Cmax, high, Day 1, 1400 mg, plasma): 4240 ng/mL
Cmax ([2]; human, plasma, oral, 1400 mg, Cmax, high, Day 5, 1400 mg bid, plasma): 3890 ng/mL
Cmax ([2]; human, plasma, oral, 1400 mg, Cmax, low, Day 1, 1400 mg, plasma): 1690 ng/mL
Cmax ([2]; human, plasma, oral, 1400 mg, Cmax, low, Day 5, 1400 mg bid, plasma): 1370 ng/mL
Cmax ([2]; human, plasma, oral, 1400 mg, Cmax, median, Day 1, 1400 mg, plasma): 3920 ng/mL
Cmax ([2]; human, plasma, oral, 1400 mg, Cmax, median, Day 5, 1400 mg bid, plasma): 2630 ng/mL
concentration at 12 h ([2]; human, plasma, oral, 1400 mg, Cmin, high, Day 1, 1400 mg, plasma): 329 ng/mL
concentration at 5 day ([2]; human, plasma, oral, 1400 mg, Cmin, high, Day 5, 1400 mg bid, plasma): 781 ng/mL
concentration at 5 day ([2]; human, plasma, oral, 1400 mg, Cmin, low, Day 5, 1400 mg bid, plasma): 170 ng/mL
concentration at 5 day ([2]; human, plasma, oral, 1400 mg, Cmin, median, Day 5, 1400 mg bid, plasma): 476 ng/mL
Tmax ([2]; human, plasma, oral, 1400 mg, Tmax, high, Day 1, 1400 mg, plasma): 3.2 h
Tmax ([2]; human, plasma, oral, 1400 mg, Tmax, high, Day 5, 1400 mg bid, plasma): 5 h
Tmax ([2]; human, plasma, oral, 1400 mg, Tmax, low, Day 1, 1400 mg, plasma): 2 h
